Literature values as cited in patent publication US8703739B2, “Intravascular indwelling catheter lock solution containing weak acid and container containing the same” (priority 2008, dated 2014).
Read-outs that look alike come from different tables or passages of the source.

Row | Buffer pKa (second pKa) | Compound | Buffer pKa (first pKa)
1 | 4.77 | O=C(O)CC(O)C(=O)O (stereo not drawn) [malic acid] | 3.23
2 | – | O=C1O[C@H]([C@@H](O)CO)C(O)=C1O [ascorbic acid] | 4.16
